Measurements as given in US20220388964A1 (HiberCell, Inc., priority 2019, published 2022).

Target: GCN2 (Homo sapiens, UniProt Q9P2K8)
Test: TR-FRET biochemical assay for inhibition of GCN2 (Example 106, for Example 1-4BB)

Chain of GCN2 (Q9P2K8 whole entry): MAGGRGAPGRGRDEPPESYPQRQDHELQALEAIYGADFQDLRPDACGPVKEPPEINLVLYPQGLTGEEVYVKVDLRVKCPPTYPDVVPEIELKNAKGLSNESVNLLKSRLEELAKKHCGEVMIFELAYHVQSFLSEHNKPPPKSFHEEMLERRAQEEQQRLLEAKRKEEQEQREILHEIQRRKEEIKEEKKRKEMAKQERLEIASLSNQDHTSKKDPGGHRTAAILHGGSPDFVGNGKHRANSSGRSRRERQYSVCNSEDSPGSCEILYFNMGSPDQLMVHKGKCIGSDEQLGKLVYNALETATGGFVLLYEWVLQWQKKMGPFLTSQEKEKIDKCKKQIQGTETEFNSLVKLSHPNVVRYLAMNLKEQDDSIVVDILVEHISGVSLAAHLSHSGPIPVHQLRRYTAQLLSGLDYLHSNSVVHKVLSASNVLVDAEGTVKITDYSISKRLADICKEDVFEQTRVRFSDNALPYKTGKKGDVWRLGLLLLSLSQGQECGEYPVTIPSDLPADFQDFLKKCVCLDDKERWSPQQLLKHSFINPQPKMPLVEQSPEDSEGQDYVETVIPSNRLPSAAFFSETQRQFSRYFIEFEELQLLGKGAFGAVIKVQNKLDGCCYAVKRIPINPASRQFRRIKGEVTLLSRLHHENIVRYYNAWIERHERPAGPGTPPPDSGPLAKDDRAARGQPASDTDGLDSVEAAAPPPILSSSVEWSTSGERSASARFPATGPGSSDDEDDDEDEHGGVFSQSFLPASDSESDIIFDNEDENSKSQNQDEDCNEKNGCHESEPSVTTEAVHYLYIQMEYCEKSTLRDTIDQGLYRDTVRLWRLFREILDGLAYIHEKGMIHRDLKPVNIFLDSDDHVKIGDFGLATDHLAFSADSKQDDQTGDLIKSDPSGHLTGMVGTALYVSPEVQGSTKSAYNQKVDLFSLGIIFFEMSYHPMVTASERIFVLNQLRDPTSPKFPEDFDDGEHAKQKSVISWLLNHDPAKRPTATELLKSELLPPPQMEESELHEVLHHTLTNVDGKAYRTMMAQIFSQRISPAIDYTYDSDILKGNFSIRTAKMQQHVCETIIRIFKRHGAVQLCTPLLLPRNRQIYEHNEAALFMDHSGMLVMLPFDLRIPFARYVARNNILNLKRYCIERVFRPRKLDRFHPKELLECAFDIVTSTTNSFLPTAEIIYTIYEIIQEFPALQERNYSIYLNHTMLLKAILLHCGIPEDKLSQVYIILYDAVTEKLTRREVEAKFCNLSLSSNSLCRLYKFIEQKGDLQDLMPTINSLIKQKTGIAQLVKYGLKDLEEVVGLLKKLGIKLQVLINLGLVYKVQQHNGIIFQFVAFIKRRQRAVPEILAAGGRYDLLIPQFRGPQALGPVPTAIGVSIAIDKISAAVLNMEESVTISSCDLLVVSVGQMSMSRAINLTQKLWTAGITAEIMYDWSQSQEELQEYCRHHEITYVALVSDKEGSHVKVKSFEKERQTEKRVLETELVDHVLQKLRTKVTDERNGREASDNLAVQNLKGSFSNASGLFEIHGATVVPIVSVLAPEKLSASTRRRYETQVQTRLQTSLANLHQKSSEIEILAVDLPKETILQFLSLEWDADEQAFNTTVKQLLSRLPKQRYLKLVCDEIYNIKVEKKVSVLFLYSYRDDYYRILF

With O=S(=O)(Nc1ccc(F)c(-c2ccc3c(-c4ncc[nH]4)n[nH]c3c2F)c1F)c1ccc(F)cc1Cl [Example 2BS] the IC50 (Table 8) was < 500 nM.
Cc1ncc(F)cc1S(=O)(=O)Nc1ccc(F)c(-c2ccc3c(C(=O)NCCCO)n[nH]c3c2F)c1F [Example 3AZ, 6-(2,6-difluoro-3-((5-fluoro-2-methylpyridine)-3-sulfonamido)phenyl)-7-fluoro-N-(3-hydroxypropyl)-1H-indazole-3-carboxamide] was tested, and the IC50 (Table 9) was < 500 nM.
For COc1ncc(F)cc1S(=O)(=O)Nc1ccc(C#N)c(-c2ccc3c(C(N)=O)n[nH]c3c2F)c1F [Example 3BR, 6-(6-cyano-2-fluoro-3-((5-fluoro-2-methoxypyridine)-3-sulfonamido)phenyl)-7-fluoro-1H-indazole-3-carboxamide], the IC50 (Table 9) was 500 to 2500 nM.
In the case of O=S(=O)(Nc1ncc(F)c(-c2ccc3c(-c4ncc[nH]4)n[nH]c3c2F)c1F)c1cc(F)ccc1F [Example 3H, N-(3,5-difIuoro-4-(7-fluoro-3-(1H-imidazol-2-yl)-1H-indazol-6-yl)pyridin-2-yl)-2,5-difluorobenzene-sulfonamide], the IC50 (Table 9) is reported as < 500 nM.
With COc1ccccc1S(=O)(=O)Nc1ccc(F)c(-c2ccc3c(-c4ncc[nH]4)n[nH]c3c2F)c1F [Example 2BF, N-(2,4-difluoro-3-(7-fIuoro-3-(1H-imidazol-2-yl)-1H-indazol-6-yl)phenyl)-2-methoxybenzenesulfonamide] the IC50 (Table 8) was 500 to 2500 nM.
In the case of O=S(=O)(Nc1ccc(F)c(-c2ccc3c(-c4ncc[nH]4)n[nH]c3c2F)c1F)c1cc(F)cc(CO)c1Cl [Example 3CH, 2-chloro-N-(2,4-difluoro-3-(7-fluoro-3-(1H-imidazol-2-yl)-1H-indazol-6-yl)phenyl)-5-fluoro-3-(hydroxymethyl)-benzenesulfonamide], the IC50 (Table 9) is reported as < 500 nM.
CNC(=O)c1n[nH]c2c(F)c(-c3c(F)cnc(NS(=O)(=O)c4cc(F)cnc4C)c3F)ccc12 [Example 24, 6-(3,5-Difluoro-2-((5-fluoro-2-methylpyridine)-3-sulfonamido)pyridin-4-yl)-7-fluoro-N-methyl-1H-indazole-3-carboxamide] was tested, and the IC50 (Table 9) was > 10000 nM.
With COc1ncc(CO)cc1S(=O)(=O)Nc1ccc(F)c(-c2ccc3c(-c4ncc[nH]4)n[nH]c3c2F)c1F [Example 3DC, N-(2,4-difluoro-3-(7-fluoro-3-(1H-imidazol-2-yl)-1H-indazol-6-yl)phenyl)-5-(hydroxylmethyl)-2-methoxypyridine-3-sulfonamide] the IC50 (Table 9) was 500 to 2500 nM.
For COc1ncc(C#N)cc1S(=O)(=O)Nc1ccc(F)c(-c2ccc3c(-c4ncc[nH]4)n[nH]c3c2F)c1F [Example 3DJ, 5-cyano-N-(2,4-difluoro-3-(7-fluoro-3-(1H-imidazol-2-yl)-1H-indazol-6-yl)phenyl)-2-methoxypyridine-3-sulfonamide], the IC50 (Table 9) was < 500 nM.
With O=C(Nc1cnn(CCO)c1)c1n[nH]c2c(F)c(-c3c(F)ccc(NS(=O)(=O)c4cc(F)cc(CO)c4Cl)c3F)ccc12 [Example 4AC] the IC50 (Table 9) was < 500 nM.
In the case of COc1ncc(F)cc1S(=O)(=O)Nc1nccc(-c2ccc3c(-c4ncc[nH]4)n[nH]c3c2F)c1C#N [Example 31], the IC50 (Table 9) is reported as 500 to 2500 nM.
With O=S(=O)(Nc1ccc(F)c(-c2ccc3c(-c4ncc[nH]4)n[nH]c3c2F)c1F)c1cccc(Cl)c1F [Example 2BB, 3-chloro-N-(2,4-difluoro-3-(7-fluoro-3-(1H-imidazol-2-yl)-1H-indazol-6-yl)phenyl)-2-fluorobenzenesulfonamide] the IC50 (Table 8) was < 500 nM.
With COc1ncc(F)cc1S(=O)(=O)Nc1cc(F)cc(-c2ccc3c(C(=O)NCCCO)n[nH]c3c2F)c1F [Example 3AP, 6-(2,5-difluoro-3-((5-fluoro-2-methoxypyridine)-3-sulfon-amido)phenyl)-7-fluoro-N-(3-hydroxypropyl)-1H-indazole-3-carboxamide] the IC50 (Table 9) was < 500 nM.
With O=S(=O)(Nc1ccc(F)c(-c2ccc3c(-c4ncc[nH]4)n[nH]c3c2F)c1F)c1cc(Cl)cc(CO)c1Cl [Example 2AF, 2,5-dichloro-N-(2,4-difluoro-3-(7-fluoro-3-(1H-imidazol-2-yl)-1H-indazol-6-yl)-phenyl)-3-(hydroxyl-methyl)benzenesulfonamide] the IC50 (Table 8) was < 500 nM.
COc1ncc(F)cc1S(=O)(=O)Nc1ccc(F)c(-c2ccc3c(C(=O)NC4CCN(C)CC4)n[nH]c3c2F)c1F [Example 3AJ, 6-(2,6-difluoro-3-((5-fluoro-2-methoxypyridine)-3-sulfonamido)phenyl)-7-fluoro-N-(1-methylpiperidin-4-yl)-1H-indazole-3-carboxamide] was tested, and the IC50 (Table 9) was < 500 nM.
In the case of COc1ncc(Cl)cc1S(=O)(=O)Nc1cccc(-c2ncc3c(-c4ncc[nH]4)n[nH]c3c2F)c1F [Example 3AG, 5-chloro-N-(2-fluoro-3-(7-fluoro-3-(1H-imidazol-2-yl)-1H-pyrazolo[4,3-c]pyridin-6-yl)phenyl)-2-methoxy-pyridine-3-sulfonamide], the IC50 (Table 9) is reported as < 500 nM.
Cc1c(CO)cc(F)cc1S(=O)(=O)Nc1ccc(F)c(-c2ccc3c(-c4ncc[nH]4)n[nH]c3c2F)c1F [Example 32, N-(2,4-Difluoro-3-(7-fluoro-3-(1H-imidazol-2-yl)-1H-indazol-6-yl)phenyl)-5-fluoro-3-(hydroxymethyl)-2-methylbenzenesulfonamide] was tested, and the IC50 (Table 9) was < 500 nM.
With COc1ncc(F)cc1S(=O)(=O)Nc1ccc(F)c(-c2ccc3c(C(=O)NCC4CCN(C)CC4)n[nH]c3c2F)c1F [Example 3AK, 6-(2,6-difluoro-3-((5-fluoro-2-methoxypyridine)-3-sulfonamido)phenyl)-7-fluoro-N-((1-methylpiperidin-4-yl)methyl)-1H-indazole-3-carboxamide] the IC50 (Table 9) was < 500 nM.
With COc1ncc(F)cc1S(=O)(=O)Nc1ccc(F)c(-c2ccc3c(C(=O)NCCCN(C)C)n[nH]c3c2F)c1F [Example 3U, 6-(2,6-difluoro-3-((5-fluoro-2-methoxypyridine)-3-sulfonamido)phenyl)-N-(3-(dimethylamino)propyl)-7-fluoro-1H-indazole-3-carboxamide] the IC50 (Table 9) was < 500 nM.
COc1ncc(Cl)cc1S(=O)(=O)Nc1ccc(F)c(-c2ccc3c(C(=O)Nc4cn[nH]n4)n[nH]c3c2F)c1F [Example 3DF, 6-(3-((5-chloro-2-methoxy-pyridine)-3-sulfonamido)-2,6-difluorophenyl)-7-fluoro-1H-(2H-1,2,3-triazol-4-yl)-1H-indazole-3-carboxamide] showed an IC50 (Table 9) of 500 to 2500 nM.
COc1ncccc1S(=O)(=O)Nc1ccc(F)c(-c2ccc3c(C(N)=O)n[nH]c3c2F)c1F [Example 3BJ, 6-(2,6-difluoro-3-((2-methoxypyridine)-3-sulfonamido)phenyl)-7-fluoro-1H-indazole-3-carboxamide] was tested, and the IC50 (Table 9) was 500 to 2500 nM.
In the case of Cc1c(CO)cc(F)cc1S(=O)(=O)Nc1ccc(F)c(-c2ccc3c(C(=O)NCCCO)n[nH]c3c2F)c1F [Example 4H], the IC50 (Table 9) is reported as < 500 nM.
Cc1ccc(F)cc1S(=O)(=O)Nc1ccc(F)c(-c2cc3[nH]ncc3cn2)c1F [Example 4BB] was tested, and the IC50 (Table 9) was 500 to 2500 nM.
In the case of NC(=O)c1n[nH]c2c(F)c(-c3c(F)ccc(NS(=O)(=O)c4cc(F)cc(CO)c4Cl)c3F)ccc12 [Example 4AB], the IC50 (Table 9) is reported as < 500 nM.
With Cc1ncc(F)cc1S(=O)(=O)Nc1cc(F)cc(-c2ccc3c(C(=O)NCCCN(C)C)n[nH]c3c2F)c1F [Example 3CD, 6-(2,5-difluoro-3-((5-fluoro-2-methylpyridine)-3-sulfonamido)phenyl)-N-(3-(dimethylamino)propyl)-7-fluoro-1H-indazole-3-carboxamide] the IC50 (Table 9) was < 500 nM.
Cc1ccc(S(=O)(=O)Nc2ccc(F)c(-c3ccc4c(C(=O)Nc5cn[nH]c5)n[nH]c4c3F)c2F)c(C)n1 [Example 3DI, 6-(3-((2,6-dimethylpyridine)-3-sulfonamido)-2,6-difluoro-phenyl)-7-fluoro-N-(1H-pyrazol-4-yl)-1H-indazole-3-carboxamide] was tested, and the IC50 (Table 9) was < 500 nM.
Cc1ccc(S(=O)(=O)Nc2ccc(F)c(-c3ccc4c(-c5ncc[nH]5)n[nH]c4c3F)c2F)c(C)n1 [Example 2AA, N-(2,4-difluoro-3-(7-fluoro-3-(1H-imidazol-2-yl)-1H-indazol-6-yl)phenyl)-2,6-dimethyl-pyridine-3-sulfonamide] was tested, and the IC50 (Table 8) was < 500 nM.
COc1ncc(F)cc1S(=O)(=O)Nc1cc(F)cc(-c2ccc3c(C(=O)NCCCN(C)C)n[nH]c3c2F)c1F [Example 3BK, 6-(3-((5-fluoro-2-methoxy-pyridine)-3-sulfonamido)-2,5-difluorophenyl)-N-(3-(dimethylamino)propyl)-7-fluoro-1H-indazole-3-carboxamide] was tested, and the IC50 (Table 9) was < 500 nM.
With COc1ncc(F)cc1S(=O)(=O)Nc1cccc(-c2ccc3c(-c4ncc[nH]4)n[nH]c3c2F)c1F [Example 3V, N-(2-fluoro-3-(7-fluoro-3-(1H-imidazol-2-yl)-1H-indazol-6-yl)phenyl)-5-fluoro-2-methoxypyridine-3-sulfonamide] the IC50 (Table 9) was < 500 nM.
COc1ccc(S(=O)(=O)Nc2ccc(F)c(-c3ccc4c(-c5ncc[nH]5)n[nH]c4c3F)c2F)cc1 [Example 2B, N-(2,4-difluoro-3-(7-fluoro-3-(1H-imidazol-2-yl)-1H-indazol-6-yl)phenyl)-4-methoxybenzene-sulfonamide] showed an IC50 (Table 8) of 500 to 2500 nM.
With COc1ncc(Cl)cc1S(=O)(=O)Nc1ccc(F)c(-c2ccc3c(C(=O)NCCCN(C)C)n[nH]c3c2F)c1F [Example 2CG, 6-(3-((5-chloro-2-methoxy-pyridine)-3-sulfonamido)-2,6-difluorophenyl)-N-(3-(di-methylamino)propyl)-7-fluoro-1H-indazole-3-carboxamide] the IC50 (Table 8) was < 500 nM.
With Cc1ncc(Cl)cc1S(=O)(=O)Nc1ccc(F)c(-c2ccc3c(-c4ncc[nH]4)n[nH]c3c2F)c1F [Example 2CM, 5-chloro-N-(2,4-difluoro-3-(7-fluoro-3-(1H-imidazol-2-yl)-1H-indazol-6-yl)phenyl)-2-methylpyridine-3-sulfonamide] the IC50 (Table 8) was < 500 nM.
In the case of O=C1CCc2c1cc(F)cc2S(=O)(=O)Nc1ccc(F)c(-c2ccc3c(C(=O)Nc4cn[nH]c4)n[nH]c3c2F)c1F [Example 4AD], the IC50 (Table 9) is reported as < 500 nM.
For COc1cccc(S(=O)(=O)Nc2ccc(F)c(-c3ccc4c(-c5ncc[nH]5)n[nH]c4c3F)c2F)c1 [Example 2F, N-(2,4-difluoro-3-(7-fluoro-3-(1H-imidazol-2-yl)-1H-indazol-6-yl)phenyl)-3-methoxy-benzene-sulfonamide], the IC50 (Table 8) was < 500 nM.
